Data as given in article PMC4861903, “Synthesis of a highly water-soluble acacetin prodrug for treating experimental atrial fibrillation in beagle dogs” (Scientific Reports, 2016).

How the values were obtained:
[1] = target: T1, IKACh (acetylcholine-activated K+ current) (Rattus norvegicus, UniProt P48548+P63251); assay: Whole-cell IKACh elicited by 5 μM carbachol in rat atrial myocytes; type: cell-based; settings: 30 μM, at −100 mV, n = 5
T1 construct: endogenous in cells; host or cells: atrial myocytes dissociated from male Sprague-Dawley rats
T1 sequence (P63251 1-501): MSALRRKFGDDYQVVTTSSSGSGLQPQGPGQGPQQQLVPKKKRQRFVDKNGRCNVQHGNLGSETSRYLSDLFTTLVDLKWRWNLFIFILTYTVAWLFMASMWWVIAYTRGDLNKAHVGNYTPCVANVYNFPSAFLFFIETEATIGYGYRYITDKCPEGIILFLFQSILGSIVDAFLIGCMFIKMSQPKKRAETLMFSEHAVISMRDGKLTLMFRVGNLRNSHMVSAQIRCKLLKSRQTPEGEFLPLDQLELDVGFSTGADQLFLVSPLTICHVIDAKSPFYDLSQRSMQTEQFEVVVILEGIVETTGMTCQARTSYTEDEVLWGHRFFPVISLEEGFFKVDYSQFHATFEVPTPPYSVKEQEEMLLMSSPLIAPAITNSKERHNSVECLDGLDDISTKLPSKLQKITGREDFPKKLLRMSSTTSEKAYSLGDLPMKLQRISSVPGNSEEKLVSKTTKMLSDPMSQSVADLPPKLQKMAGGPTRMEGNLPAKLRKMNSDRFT
T1 sequence (P48548 1-419): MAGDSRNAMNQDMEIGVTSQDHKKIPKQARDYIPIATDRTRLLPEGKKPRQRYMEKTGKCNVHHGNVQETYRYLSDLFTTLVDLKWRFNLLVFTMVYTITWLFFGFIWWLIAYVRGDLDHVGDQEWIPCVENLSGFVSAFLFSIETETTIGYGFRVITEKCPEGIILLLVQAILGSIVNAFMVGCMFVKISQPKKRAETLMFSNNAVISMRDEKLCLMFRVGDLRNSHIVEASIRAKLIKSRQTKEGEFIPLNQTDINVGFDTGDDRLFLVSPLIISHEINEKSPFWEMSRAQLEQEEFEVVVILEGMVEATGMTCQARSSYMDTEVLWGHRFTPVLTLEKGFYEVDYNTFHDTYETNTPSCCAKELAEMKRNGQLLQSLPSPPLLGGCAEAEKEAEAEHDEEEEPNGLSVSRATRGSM
Procedure: Whole-cell currents of hKv1.5 and hKv4.3 were recorded in established HEK 293 cell lines stably expressing hKv1.5 (KCN5A) and hKv4.3 (KCND3) and IKACh was determined in isolated rat atrial myocytes as described previously[12][31][32] and in Supplemental Materials. […]
Effects of acacetin prodrug on cardiac potassium currents […]
Cells on a coverslip were transferred to an open cell chamber (0.5 ml) mounted on the stage of an inverted microscope and superfused with Tyrode’s solution at 2 mL/min. The whole cell patch-clamp technique was used as described previously.1, 2 The whole-cell membrane currents were measured using an EPC-10 amplifier and Pulse software (Heka Elektronik, Lambrecht, Germany). Borosilicate glass electrodes (1.2-mm OD) were pulled with a Brown/Flaming puller (model P-97, Sutter Instrument, Nato, CA) and had resistances of 1.5~2.5 MΩ when filled with the pipette solution. A 3-M KCl agar bridge was used as the reference electrode. The tip potential was zeroed before the patch pipette contacted the cell. After a giga-Ohm seal was obtained, the cell membrane was ruptured by applying gentle pressure to establish a whole-cell configuration. […] The liquid junction potential (14.7 mV) calculated with the software Clampex was not corrected in the experiment and data […]
Whole-cell current of IKACh was determined in isolated rat atrial myocytes. […]

QTc interval = assay: ECG QTc interval in anesthetized beagle dogs; type: in vivo; settings: for QTc interval after drug administration: at 35 min after administration, P = NS
Procedure: QTc (corrected QT) interval of ECG was analyzed in anesthetized beagle dogs before and at 35 min after drug administration. QTc interval was not altered (P = NS, before vs. after drug administration) in vehicle animals (n = 5, 273.6 ± 2.6 ms vs. 276.1 ± 4.2 ms) and animals treated with 3 mg/kg (n = 6, 279.5 ± 2.5 ms vs. 282.3 ± 1.7 ms), 6 mg/kg (n = 8, 276.9 ± 2.4 ms vs. 279.1 ± 2.3 ms), or 12 mg/kg (n = 7, 274.1 ± 3.5 ms vs. 278.7 ± 2.9 ms) acacetin prodrug. […]
China) were anesthetized with pentobarbital (40 mg/kg, i.v.), supplemented as necessary during the experiment. The animal was kept on an operation table maintained at 37°C, intubated and ventilated with room air. The left femoral vein was cannulated to maintain fluid balance, anesthesia, and test articles. Lead II electrocardiogram (ECG) was continuously monitored with using a digital recording system (RM6240, Chengdu Instruments, China)
An action potential (MAP) recording- and pacing-catheter (Boston Scientific Ltd) was introduced to the right atrium through right jugular vein, and an electrical pacing catheter was introduced to left ventricle via […] for ventricular pacing (when necessary).
Bilateral cervical vagal nerves were isolated and bipolar electrodes were placed to stimulate efferent vagal nerves with 15 Hz, 0.2 ms duration voltage step (80-100% threshold) to induce a 50% reduction of heart rate. Ventricular pacing was performed with 2-ms voltage pulses (2.5 Hz, 150% diastolic threshold) when vagal nerves were continuously stimulated. […]
Instruments, China). […]

## COc1ccc(-c2cc(=O)c3c(O)cc(OP(=O)([O-])[O-])cc3o2)cc1.[Na+].[Na+] [acacetin prodrug, phosphate sodium salt of acacetin]
[1]
  inhibition of IK.ACh: no significant inhibition
QTc interval; 3 mg/kg i.v., n = 6, before 279.5 ± 2.5 ms
  QTc interval after drug administration: 282.3 ± 1.7 ms
QTc interval; 6 mg/kg i.v., n = 8, before 276.9 ± 2.4 ms
  QTc interval after drug administration: 279.1 ± 2.3 ms
QTc interval; 12 mg/kg i.v., n = 7, before 274.1 ± 3.5 ms
  QTc interval after drug administration: 278.7 ± 2.9 ms
QTc interval; 3, 6 and 12 mg/kg i.v., beagle dogs
  effect on QT interval: no effect
